Measured values reported in patent publication US5593970A, “Heterocyclic anthracycline analogs” (priority 1994, dated 1997).
Structures can show the parent of a compound that is named as a salt. Where two headings read alike, the source gives them in different places.

How the values were obtained:
Test in all cases: Microculture tetrazolium assay
Format in all cases: cell-based
LOX = tested on: LOX
T47D = tested on: T47D
SKOV3 = tested on: SKOV3
HT29 = tested on: HT29
SKVLB = conditions: for IC50: SKVLB; for VLB/OV3: IC50 ratio SKVLB/SKOV3
[1] = Homo sapiens, SK-OV-3, SKOV3, read-out: IC50
[2] = Homo sapiens, HT-29, HT29, read-out: IC50

Compound	IC50 (LOX; read-out: IC50)	IC50 (T47D; Homo sapiens, read-out: IC50)	IC50 (SKOV3; [1])	IC50 (HT29; [2])	IC50 (SKVLB; read-out: IC50)	VLB/OV3 (SKVLB)	IC50 (HT29; Homo sapiens, HT-29, HT29)	IC50 (LOX)	IC50 (T47D; Homo sapiens)	IC50 (SKOV3; Homo sapiens, SK-OV-3, SKOV3)	IC50 (SKVLB)	IC50 (T47D; read-out: IC50)	IC50 (SKOV3; SKOV3, read-out: IC50)	IC50 (HT29; HT29, read-out: IC50)
CC[C@@H]1CO[C@@H](O[C@H]2C[C@H](NC(=O)C(F)(F)F)[C@H](O)[C@H](C)O2)C2=C1C(=O)c1c(cc3ccccc3c1O)C2=O (mixture of isomers) [BCH-2084, (1'S, 1S,4S) and (1'S,1R,4R)-5,12-dioxo-4-ethyl-6-hydroxy-1-(2',3',6'-trideoxy-3'-trifluoroacetamido-L-lyxohexopyranose)-3,4,5,12-tetrahydroanthraceno-[2,3-c]-pyran]	5.2 µM	5.6 µM	4.2 µM	5.8 µM	12 µM	–	–	–	–	–	–	–	–	–
CC[C@H]1CO[C@H](O[C@H]2C[C@H](N)[C@H](O)[C@H](C)O2)c2c(O)c3c(c(O)c21)C(=O)c1ccccc1C3=O (mixture of isomers) [BCH-2085, (1'S,1S,4S) and (1'S,1R,4R)-5,12-dihydroxy-4-ethyl-1-(2',3',6'-trideoxy-3'-amino-L-lyxohexopyranose)-1,2,3,4-tetrahydro-(2-oxygen)-naphthacene-6,11-dione-hydrochloride]	0.58 µM	1.6 µM	1.1 µM	0.8 µM	3.4 µM	–	–	–	–	–	–	–	–	–
CC(=O)CC1CC2=C(C(=O)c3cc4ccccc4c(O)c3C2=O)C(O[C@H]2C[C@H](NC(=O)C(F)(F)F)[C@H](O)[C@H](C)O2)O1 (mixture of isomers) [BCH-2097, (1'S,1R,3S) and (1'S,1S,3R)(6-hydroxy-1-(2',3',6'-trideoxy-3'-trifluoroacetamido-4'-hydroxy-L-lyxohexopyranose)-5,12-dioxo-3,4,5,12-tetrahydroanthraceno[2,3-c]pyran-3-yl)propanone]	2.51 µM	4.45 µM	6.06 µM	2.64 µM	5.36 µM	0.88	–	–	–	–	–	–	–	–
CC(C)C(=O)C1Cc2c(O)c3c(c(O)c2C(O[C@H]2C[C@H](N)[C@H](O)[C@H](C)O2)O1)C(=O)c1ccccc1C3=O (mixture of isomers) [BCH-2120, (1'S, 1R,3S) and (1'S, 1S ,3R)-isopropyl-[5,12-dihydroxy-6,11-dioxo-1-(2',3',6'-trideoxy-3'-amino-L-lyxohexopyranose)-3,4,6,11-tetrahydroanthraceno-[2,3-c]-pyran-3-yl]-ketone hydrochloride]	0.143 µM	0.314 µM	0.432 µM	0.168 µM	0.398 µM	0.92	–	–	–	–	–	–	–	–
C[C@@H]1O[C@@H](OC2OC(CC(=O)C3CC3)CC3=C2C(=O)c2cc4ccccc4c(O)c2C3=O)C[C@H](NC(=O)C(F)(F)F)C1O (mixture of isomers) [BCH-2133, (1'S,1S,3R) and (1'S,1R,3S)-cyclopropyl-(6-hydroxy-1-((2',3',6'-trideoxy-3'-trifluoroacetamido-4'-hydroxy-L-arabino-hexopyranose)-5,10-dioxo-3,4,5,12-tetrahydronaphto-[2,3-c]pyran-3-yl)methylene)]	2.49 µM	3.62 µM	7.02 µM	3.68 µM	1.6 µM	0.23	–	–	–	–	–	–	–	–
COC(=O)[C@@H]1CC2=C(C(=O)c3c(cc4ccccc4c3O)C2=O)[C@@H](O)O1 (relative stereo) [BCH-703, Methyl(1,11-dihydroxy-5,12-dioxo-3,4,5,12-tetrahydroanthraceno[2,3-c]pyran-3-yl)formate]	12.8 µM	16.4 µM	24.8 µM	7.38 µM	18.5 µM	0.75	–	–	–	–	–	–	–	–
CC(=O)[C@@H]1CC2=C(C(=O)c3c(cc4ccccc4c3O)C2=O)[C@@H](O)O1 (relative stereo) [BCH-722]	43.7 µM	12 µM	19.2 µM	7.11 µM	83 µM	4.32	–	–	–	–	–	–	–	–
CO[C@H]1S[C@H](CO)CC2=C1C(=O)c1cc3ccccc3c(O)c1C2=O (relative stereo) [BCH-725]	1.93 µM	4.57 µM	3.46 µM	2.49 µM	3.99 µM	1.15	–	–	–	–	–	–	–	–
CC[C@@H]1CC2=C(C(=O)c3cc4ccccc4c(O)c3C2=O)[C@@H](O)O1 (relative stereo) [BCH-1162, (trans)-1,6-Dihydroxy-3-ethyl-1,2,3,4-tetrahydro-(2-oxygen) naphtacene-5,12-dione]	> 100 µM	2.57 µM	1.16 µM	4.17 µM	2.7 µM	2.33	–	–	–	–	–	–	–	–
CO[C@H]1S[C@H](C(C)=O)CC2=C1C(=O)c1cc3ccccc3c(O)c1C2=O (relative stereo) [BCH-1164, Trans-3-aceto-1-methoxy-6-hydroxy-1,2,3,4,5,12-hexahydro-2-(sulfur)naphthacene-5,12-dione]	> 100 µM	12.2 µM	9.36 µM	–	9.2 µM	0.98	6.97 µM	–	–	–	–	–	–	–
CC[C@@H]1Cc2c(O)c3c(c(O)c2[C@@H](O)O1)C(=O)c1ccccc1C3=O (relative stereo) [BCH-1174, (trans)-6,11-dioxo-3-ethyl-1,5,12-trihydroxy-3,4,5,12-tetrahydroanthraceno-[2,3-c]-pyran]	> 100 µM	> 100 µM	> 100 µM	> 100 µM	> 100 µM	–	–	–	–	–	–	–	–	–
CO[C@H]1O[C@H](C(=O)CP(=O)(OC)OC)CC2=C1C(=O)c1cc3ccccc3c(O)c1C2=O (relative stereo) [BCH-1650]	–	–	–	–	–	1.12	0.629 µM	0.755 µM	2.44 µM	0.802 µM	0.895 µM	–	–	–
C=COC(=O)NCCCO[C@@H]1O[C@@H](C(C)=O)CC2=C1C(=O)c1cc3ccccc3c(O)c1C2=O (relative stereo) [BCH-2036]	5.4 µM	6.21 µM	3.7 µM	3.38 µM	12.1 µM	3.27	–	–	–	–	–	–	–	–
CC(=O)OCC1(C2CC3=C(C(=O)c4cc5ccccc5c(O)c4C3=O)C(O[C@H]3C[C@H](NC(=O)C(F)(F)F)[C@H](O)[C@H](C)O3)O2)OCCCO1 (single isomer, unassigned) [BCH-747]	18.5 µM	18.1 µM	21 µM	15.3 µM	20.5 µM	0.98	–	–	–	–	–	–	–	–
CCOC(=O)C1CC2=C(CO1)C(=O)c1c(c(OC(C)=O)c3ccccc3c1OC(C)=O)C2=O (stereo not drawn) [BCH-655, Ethyl[6,11-diacetoxy-B,12-dioxo-3,4,5,12-tetrahydroanthraceno (2,3-c)pyran-3-yl]formate]	> 100 µM	> 100 µM	> 100 µM	> 100 µM	> 100 µM	–	–	–	–	–	–	–	–	–
CCOC(=O)C1CC2=C(CO1)C(=O)c1c(cc3ccccc3c1OC(C)=O)C2=O (stereo not drawn) [BCH-656, Ethyl[11-acetoxy-5,12-dioxo-3,4,5,12-tetrahydro-anthraceno[2,3-c]pyran-3-yl]formate]	68.9 µM	65.6 µM	76.7 µM	86.6 µM	82.9 µM	1.08	–	–	–	–	–	–	–	–
CCOC(=O)C1CC2=C(CO1)C(=O)c1cc3ccccc3c(OC(C)=O)c1C2=O (stereo not drawn) [BCH-659, Ethyl(6-acetoxy-5,12-dioxo-3,4,5,12-tetrahydroanthraceno[2,3-c]pyran-3-yl)formate]	4.82 µM	3.83 µM	4.53 µM	2.36 µM	2.54 µM	0.56	–	–	–	–	–	–	–	–
COCOCC(=O)C1CC2=C(CO1)C(=O)c1c(c(OC(C)=O)c3ccccc3c1OC(C)=O)C2=O (stereo not drawn) [BCH-695, 6,11-diacetoxy-3-(2-methoxymethoxy)aceto-1,2,3,4-tetrahydro-(2-oxygen)naphthacene-5,12-dione]	21.5 µM	25.2 µM	30.8 µM	11.4 µM	15 µM	0.49	–	–	–	–	–	–	–	–
COCOCC(=O)C1CC2=C(CO1)C(=O)c1cc3ccccc3c(O)c1C2=O (stereo not drawn) [BCH-697, 3-(2-methoxymethoxy)aceto-6-hydroxy-1,2,3,4-tetrahydro-(2-oxygen)napthacene-5,12-dione]	12.6 µM	13 µM	15.5 µM	6.04 µM	–	0.68	–	–	–	–	10.6 µM	–	–	–
C=CC1CC2=C(C(=O)c3cc4ccccc4c(OC(C)=O)c3C2=O)C(OC)O1 (stereo not drawn) [BCH-716, 6-acetoxy-1-methoxy-1,2,3,4-tetrahydro-3-vinyl-(2-oxygen)naphthacene-5,12-dione]	41.6 µM	70.3 µM	> 100 µM	> 100 µM	85.5 µM	–	–	–	–	–	–	–	–	–
CC(=O)[C@H]1CC2=C(C(=O)c3cc4ccccc4c(O)c3C2=O)[C@H](O[C@H]2C[C@H](NC(=O)C(F)(F)F)[C@H](O)[C@H](C)O2)O1 [BCH-724, (1S',1S,3R)-Methyl-(6-hydroxy-1-(3'-trifluoroacyldaunosamine)-5,12-dioxo-3,4,5,12-tetrahydroanthraceno[2,3-C]pyran-3-yl) ketone]	1.49 µM	3.89 µM	3.15 µM	0.727 µM	1.64 µM	0.52	–	–	–	–	–	–	–	–
COCOCC(=O)C1CC2=C(C(=O)c3cc4ccccc4c(O)c3C2=O)C(O[C@H]2C[C@H](NC(=O)C(F)(F)F)[C@H](OC(=O)c3ccc([N+](=O)[O-])cc3)[C@H](C)O2)O1 (stereo partly drawn) [BCH-732]	48 µM	100 µM	38.5 µM	38.4 µM	100 µM	–	–	–	–	–	–	–	–	–
CC(=O)OCC1(C2CC3=C(C(=O)c4c(cc5ccccc5c4OC(C)=O)C3=O)C(O)O2)OCCCO1 (stereo not drawn) [BCH-733]	6.07 µM	–	–	–	6.96 µM	1.62	–	–	–	–	–	5.51 µM	4.3 µM	2.01 µM
CC(=O)OCC1(C2CC3=C(C(=O)c4cc5ccccc5c(OC(C)=O)c4C3=O)C(O)O2)OCCCO1 (stereo not drawn) [BCH-734]	9.76 µM	–	–	–	8.97 µM	1.02	–	–	–	–	–	6.41 µM	8.82 µM	5.77 µM
